In general, melting point refers to the temperature of the solid-liquid transition.

Molecules are shown by their SMILES.

Turning to `COC(=O)c1cncc(Br)c1`, the melting point is 98 to 100 °C. Next, `CCN(CC)CCSC(=O)N(c1ccccc1)c1ccccc1`: 48 °C; `CCCCCCCCBr`: -55 °C. In the case of `O=C(O)C1(Cl)CC2C=CC1C2` (centres undefined) it was 139 to 141 °C; in that of `CC(C)C1=C(O)C(=O)C2=C(C=CC3C(C)(C)CCCC23C)C1=O` (centres undefined), 167 °C; in that of `c1ccc(C(CCN2CCCCC2)c2ccccc2)cc1`, 41 °C. Molecule `CN(N)c1cnc2ccccc2n1` yielded a melting point of 107 to 108 °C. As for `O=C(O)CCCCCCCCCCCC(=O)O`, the melting point lay within 112 to 114 °C. In the case of `CC(O)CO` (centres undefined) it was -60 °C.

For the molecule `O=S(=O)(Cl)c1ccccc1F`, the melting point turned out to be 30 °C.

Molecule `CCOc1cc(Oc2ccc(C(F)(F)F)cc2Cl)ccc1[N+](=O)[O-]` came in with a melting point of 85.3 °C. `Fc1ccccc1F` yielded a melting point of -34 °C. Next, `CCC1(N2CCCCC2)C(=O)NC(=O)NC1=O`: 215 °C.

The molecule `CCOC(=O)C(C#N)=C(S)Nc1ccccc1` showed a melting point of 118 to 119 °C. Take `CC(=O)OC1C(O)C2=C(C(=O)C(OC(C)=O)C3(CC3C)C2=O)C2(C)CCC(OC(C)=O)C(C)(C)C12` (centres undefined): the melting point was in the range of 116 to 117 °C. `OC(c1ccccc1)(c1ccccc1)C(O)(c1ccccc1)c1ccccc1` returned a melting point of 184 to 186 °C. `CC(C)(C)C(=O)C(=O)O` gave a melting point of 90.5 °C. Next, `CC(Oc1ccc(OC(F)(F)F)cc1)C(=O)O` (centres undefined): 76 to 78 °C.

For `COc1cc(C(N)=O)cc(OC)c1OC`, the melting point was found to be 179 °C. Next, `O=C(CCl)Nc1ccc(F)cc1`: 131 to 132 °C; `CNP(=O)(NC)Oc1ccccc1`: 102 °C; `Cc1nn(-c2ccccc2)nc1CO`: 75 to 76 °C.

For `CC1(C)Nc2cccc3c(N=Nc4ccc(N=Nc5ccccc5)c5ccccc45)ccc(c23)N1`, the melting point fell in the range of 120 to 124 °C. Turning to `CCCCOc1ccc(CO)cc1`, the melting point fell in the range of 29 to 32 °C. Molecule `COc1ccc(N=C=O)c(OC)c1` gave a melting point of 32 °C. Next, `COc1ccc(C2CCCCC2)cc1N`: 66 to 68 °C; `Cc1cc(C)c(Cc2c(C)cc(C)cc2C)c(C)c1`: 130 °C; `Nc1ccc(Cc2ccccc2)cc1`: 37 °C. Next, `CSc1nn2c(C(F)(F)F)cc(C(F)(F)F)nc2c1C(N)=O`: 250 °C; `CN(C)CCCN1c2ccccc2Sc2ccccc21`: 33 °C; `O=CCO`: 97 °C. In the case of `O=C(O)c1cccc(-c2ccco2)c1` it was 157 to 158 °C; in that of `CCN(CC)c1ccc(C(=O)O)cc1`, 194 °C. Regarding `O=C1C(c2ccccc2)=Nc2cc([N+](=O)[O-])ccc21`, the melting point stood at 185 °C. Next, `COc1cc(F)c(OC)cc1F`: 121 °C. Next, `O=S(=O)(Cl)c1ccc(C(F)(F)F)cc1`: 31 °C.

With `O=C(O)c1cc(=O)c2ccccc2o1`, the melting point came to 260 °C. Next, `CC(O)C1(C)CCC2=C1CCC1C2CCC2(C)CC(O)CCC12C` (centres undefined): 205 to 207 °C; `CCOC(=O)CC(O)(CC(=O)OCC)C(=O)OCC`: -46 °C; `O=C(O)c1ccc2ccccc2c1O`: 199 to 205 °C. In the case of `CCOC(=O)c1cc2cc3ccccc3cc2cc(C(=O)OCC)c1=O` it was 161 °C. For the molecule `CCOC(C)OCC`, the melting point was -100 °C. Next, `Cc1ccc(OP(=O)(Oc2ccc(C)cc2)Oc2ccc(C)cc2)cc1`: 77.5 °C; `c1cc2c(ccc3nonc32)nn1`: 139 to 141 °C; `Cc1ccc(S)cc1`: 43 °C. Next, `Cc1ccccc1NC(N)=O`: 190 to 195 °C; `CC12CCCC1C1CCC(CC(=O)O)C(C)(CC(=O)O)C1CC2` (centres undefined): 229 °C.

Take `O=[N+]([O-])c1cc2c(cc1C/C(=N/Nc1ccccc1)c1ccccc1)n1n(-c3ccccc3)n21`: the melting point was 197 to 198 °C. In the case of `C=C(C)C(=O)Oc1ccc(C(C)(C)c2ccc(OC(=O)C(=C)C)cc2)cc1` it was 70 to 76 °C. As for `O=C(c1ccccc1)c1cc(C(=O)c2ccccc2)cc(C(=O)c2ccccc2)c1`, the melting point turned out to be 118 °C.

As for `O=C(OCCO)c1ccccc1`, the melting point was 45 °C. `Nc1c(I)cc(I)cc1C(=O)O` registered a melting point of 241 to 243 °C.

In the case of `O=C(c1cccc([N+](=O)[O-])c1)c1nn(-c2ccccc2)/c(=N\Nc2ccccc2)s1`, the melting point turned out to be 184 °C. Next, `COc1cc([N+](=O)[O-])c(Cl)cc1NC(C)=O`: 185 °C; `CNC(=O)ON=C(C)SC`: 78 °C.

`CCOc1ccc(C(N)=O)cc1` yielded a melting point of 209 °C. Next, `CC(C)CC(C)(N)C(=O)O` (racemic): 300 °C.

In the case of `O=C(O)C=Cc1cccc(Cl)c1`, the melting point fell in the range of 163 to 166 °C. In the case of `CCc1ccccc1C(=O)N(NC(=O)c1ccccc1)C(C)(C)C` it was 178 °C; in that of `O=C(O)c1ccc(C(=O)O)nc1`, 254 °C; in that of `COC1CC2C3(C)CCCC2(COC3)C2C(OC(C)=O)CC3C(C)C(=O)C12C3O` (centres undefined), 165 °C. In the case of `CC1C(=O)C23C(O)CC4C(C)(C)CCC(O)C4(CO)C2C(O)CC1C3O` (centres undefined) it was 278 °C; in that of `O=C(Nc1cccc(Cl)c1)C(C(F)(F)F)C(F)(F)F`, 154 °C; in that of `Oc1c2ccccc2cc2ccccc12`, 152 °C. Next, `Nc1n[nH]c(N)c1Cc1ccccc1`: 148 to 149 °C. As for `O=c1cc(C(F)(F)F)c2cc(Cl)c(O)cc2o1`, the melting point was in the range of 178 to 182 °C. Next, `O=c1c2c(oc3c1CCCC3)CCCC2`: 130 °C. In the case of `COc1ccc(NC(=O)CS)cc1` it was 118 to 119 °C; in that of `O=C(O)c1cccc(-c2ccccn2)c1`, 207 to 209 °C; in that of `O=C1CCc2cc3c(cc2N1)NCCC3`, 235 °C.

Take `Oc1cccc2c1CCCC2O` (centres undefined): the melting point was in the range of 132 to 134 °C. Molecule `COc1c(F)cc(F)cc1C#N` had a melting point of 35 °C. Next, `CC(C)(C)C(=O)Nc1ncccc1C(=O)O`: 280 °C; `ClC1=C(Cl)C2(Cl)C3C(c4ccccc4C4C3C3(Cl)C(Cl)=C(Cl)C4(Cl)C3(Cl)Cl)C1(Cl)C2(Cl)Cl` (centres undefined): 217 to 220 °C. Next, `CC(C)(O)CCSc1ccc(S(N)(=O)=O)cc1`: 140 °C.

Turning to `O=[N+]([O-])c1cccc(-c2nnc3n2CN(c2cccc([N+](=O)[O-])c2)CS3)c1`, the melting point was 240 °C. In turn, `ON=C1CCCc2nnc3c(c21)CCCC3` returned a melting point of 269 to 271 °C.

`ON=Cc1cc(Br)c(O)c(Br)c1` came in with a melting point of 198 to 201 °C. In the case of `FC(F)(F)c1nnc(S)n1/N=C/c1ccccc1` it was 233 °C.

The values above are taken from a melting point compilation (Tetko et al.).
